PMC6691773, “Non-covalent immunoproteasome inhibitors induce cell cycle arrest in multiple myeloma MM.1R cells” (Journal of Enzyme Inhibition and Medicinal Chemistry, 2019)

Key:
[1] = target: Human 20S immunoproteasome β1i (Homo sapiens, UniProt P28065); assay: 20S immunoproteasome inhibition, β1i chymotrypsin-like activity (Ac-Pro-Ala-Leu-AMC)
Method: (§3) Human 20S immunoproteasome was incubated at 30 °C at a final concentration of 0.004 mg/mL with test compound present at variable concentrations. The reaction buffer consisted of 50 mM Tris HCl, pH 7.4, 10 mM NaCl, 25 mM KCl, 1 mM MgCl2, 0.03% SDS. Product release from substrate hydrolysis (50 µM) was monitored continuously over a period of 10 min.

[2] = target: Human 20S immunoproteasome β5i (Homo sapiens, UniProt P28062); assay: 20S immunoproteasome inhibition, β5i chymotrypsin-like activity (Suc-Leu-Leu-Val-Tyr-AMC); settings: for inhibition at 100 µM: read-out: inhibition of one or two ChT-L activities
Method: as §3

[3] = target: β5c subunit of constitutive proteasome; design: method as in PMID 24561716, PMID 24946214; settings: ChT-L activity of constitutive proteasome; read-out: Ki against β5c subunit; cited from earlier work
[4] = target: T1, Human 20S immunoproteasome β2i (Homo sapiens, UniProt P40306); assay: 20S immunoproteasome inhibition, β2i trypsin-like activity (Boc-Leu-Arg-Arg-AMC); type: biochemical; settings: 100 µM inhibitor, preliminary screening
T1 construct: Human 20S immunoproteasome, isolated from human spleen; purchased Enzo Life Science; host or cells: human spleen (tissue-isolated)
Method: Human 20S immunoproteasome, isolated from human spleen, was purchased from Enzo Life Science Supplier. The three distinct proteolytic activities of the 20S immunoproteasome were measured by monitoring the hydrolysis of the peptidyl 7-amino-4-methyl coumarin substrates Suc-Leu-Leu-Val-Tyr-AMC (Bachem), Boc-Leu-Arg-Arg-AMC (Bachem) and Ac-Pro-Ala-Leu-AMC (Biomol GmbH) for β5i, β2i and β1i activities of immunoproteasome, respectively. […] Inhibitor solutions were prepared from stocks in DMSO. Each independent assay was performed twice in duplicate in 96-well-plates in a total volume of 200 µL. Fluorescence of the product AMC of the substrate hydrolyses was measured using an Infinite 200 PRO microplate reader (Tecan, Männedorf, Switzerland) at 30 °C with a 380 nm excitation filter and a 460 nm emission filter.
Human 20S immunoproteasome was incubated at 30 °C at a final concentration of 0.004 mg/mL with test compound present at variable concentrations. The reaction buffer consisted of 50 mM Tris HCl, pH 7.4, 50 mM NaCl, 0.5 mM EDTA III, 0.03% SDS. Product release from substrate hydrolysis (50 µM) was monitored continuously over a period of 10 min.

[5] = test system: MM.1R cells; assay: Cytotoxicity by MTT assay; type: cell-based; settings: Homo sapiens, 24 h, dexamethasone-resistant cells, read-out: EC50 against MM.1R cells
Method: To test the efficacy of 5 and 6 a cell viability assay was performed. Human multiple myeloma cells (MM.1R; ATCC® CRL-2975™) resistant to dexamethasone were purchased by LGC Standards (Milan, Italy) and cultured under standard conditions (37 °C, 5% CO2) with standard RPMI 1640 medium added with L-glutamine, 10% foetal bovine serum, and 1% antibiotic mixture (penicillin/streptomycin) in sterile flasks. Cells were grown for a week before the assay. Compounds 5–6 were tested at different doses (1–10-20–40-80–100 µM) in a 96 well plate for 24 h to determine the cytotoxic effect. […] At the end of the 5 h, the medium was removed and the insoluble formazan crystals were dissolved with 200 µl/well of dimethyl sulphoxide (DMSO), and the absorbance was read at 540 and 620 nm. The difference between the two absorbance values was used to calculate mean for each replicate and further assess cytotoxicity. […] Results were expressed as % of vitality and reported as means and SEM.
To test the efficacy of compounds 5–6 in a cell system, we used dexamethasone-resistant human multiple myeloma cells (MM.1R), which are less responsive to chemotherapy, and are representative of patients in the later stages of the disease, as previously described. […] MM.1R cell survival was determined by the tetrazolium dye MTT assay and untreated cells were used as reference and assumed as the 100% of vital cells (Figure 2).

[6] = test system: ubiquitin in MM.1R cells; assay: Ubiquitin accumulation by western blot; type: cell-based, human; settings: 24 h, versus ctrl
Method: (§1) To test the inhibitory effect on proteasome activity, ubiquitin, cyclins, CDK, NF-kB and pNF-kB were assessed by western blot. […] After 24 h, cells were collected and protein extracted for analysis. Protein extraction and western blot analysis were performed as previously described.
(§2) Briefly, a total of 15 µg of proteins were loaded in each lane and specific antibodies were used to detect ubiquitin (Abcam, Cambridge, UK), cyclin A, cyclin B, cyclin D1, CDK1, CDK4/6, NF-kB, pNF-kB, PARP, and Caspase-3 (Cell Signaling, Danvers, MA, United States). Beta actin (Cell Signaling), was used on stripped blots as loading control. The images have been acquired using a dedicated software and densitometric data were expressed as integrated intensity and reported as means and SEM.
To test the efficacy of these compounds in inhibiting ubiquitinated protein degradation, a western blot analysis of ubiquitin was performed (Figure 3). In fact, considering that proteasome inhibition leads the cells to accumulate ubiquitinated protein into the cytoplasm, we decided to assess the changes in levels of total ubiquitinated proteins indirectly, by detecting changes in total ubiquitin levels, by western blot analysis. […] It is worth noting that these changes were dose-dependent, this adding an additional level of confidence in our experimental approach.

[7] = test system: cyclin A in MM.1R cells; assay: Cyclin A level by western blot; type: cell-based, human; settings: 24 h, 15 and 20 µM
Method: as §1, §2

[8] = test system: cyclin D1 in MM.1R cells; assay: Cyclin D1 level by western blot; type: cell-based, human; settings: 24 h, 20 µM
Method: as §1, §2

[9] = test system: pNF-kB in MM.1R cells; assay: pNF-kB level by western blot; type: cell-based, human; settings: 24 h
Method: as §1, §2

[10] = test system: PARP in MM.1R cells; assay: PARP expression by western blot; type: cell-based, human; settings: 24 h
Method: as §1, §2

[11] = test system: Caspase-3 in MM.1R cells; assay: Caspase-3 expression by western blot; type: cell-based, human; settings: 24 h
Method: as §1, §2

[12] = test system: cyclin B in MM.1R cells; assay: Cyclin B level by western blot; type: cell-based, human; settings: 24 h, 20 µM
Method: as §1, §2

[13] = test system: CDK1 in MM.1R cells; assay: CDK1 level by western blot; type: cell-based, human; settings: 24 h, p < .05
Method: as §1, §2

[14] = test system: CDK4/6 in MM.1R cells; assay: CDK4/6 level by western blot; type: cell-based, human; settings: 24 h, p < .0005
Method: as §1, §2

[15] = test system: NF-kB in MM.1R cells; assay: NF-kB level by western blot; type: cell-based, human; settings: 24 h
Method: as §1, §2

| SMILES | Ki [1] [µM] | Ki [2] [µM] | Ki [3] [µM] | inhibition at 100 µM [4] [%] | EC50 [5] [µM] | ubiquitin accumulation ([6]; all tested concentrations) | cyclin A level [7] | cyclin D1 level [8] | pNF-kB level [9] | PARP expression [10] | Caspase-3 expression [11] | inhibition at 100 µM ([1]; read-out: % of inhibition at 100 µM β1i) [%] | inhibition at 100 µM [2] [%] | ubiquitin accumulation ([6]; 20 µM) | cyclin B level [12] | CDK-1 level [13] | CDK4/6 level [14] | NF-kB level [15] |
| --- | --- | --- | --- | --- | --- | --- | --- | --- | --- | --- | --- | --- | --- | --- | --- | --- | --- | --- |
| CC(C)CCNC(=O)Cn1ccc2ncccc2c1=O [Compound 1] | 4.9 | 4.39 | – | – | – | – | – | – | – | – | – | – | – | – | – | – | – | – |
| CC(C)CCNC(=O)Cn1ccc2c(c1=O)CCCN2 [Compound 3] | – | – | 10.5 | – | – | – | – | – | – | – | – | – | – | – | – | – | – | – |
| CC(C)CCNC(=O)Cn1cc(Br)c2ncccc2c1=O [Compound 5] | – | 6.04 ± 0.29 | 0.56 | 19 | 21.2 | no significant increase | No trend of reduction | able to reduce | paradoxical increase | No significant difference | No significant difference | 36 | > 70 | – | – | – | – | – |
| CC(C)CCNC(=O)Cn1ccc2ccc(Br)cc2c1=O [Compound 6] | 4.9 ± 0.04 | 4.39 ± 0.18 | 2.34 | 24 | 17.8 | – | very significant (p < .005) reduction | consistent reduction | trend of reduction | No significant difference | No significant difference | – | > 70 | significant increase | consistent reduction | changed | changed | dose-dependent increase |
